Series [1] has as its target holoCA (Homo sapiens, UniProt P00918). Nature of the series: Binding of fluorescent reporter to holoCA. The conditions noted are these: order of magnitude in words. How it is done: The measurement is based on a literature method (44, 51). Aliquots of a 1 μM solution of the CA protein are mixed with several concentrations of DPSA, ranging from 1 nM to 10 μM. After 30 minutes of incubation, the fluorescence emission spectrum is measured with excitation at 365 nm and emission at 400-700 nm. Taking the intensity at 560 nm, which is the emission max of an apoCA-DPSA conjugate, at the highest concentration aliquot to represent 99% fractional saturation, and 1% at the lowest concentration aliquot, the fractional saturation is plotted as a function of the DPSA concentration on a logarithmic scale, and the data is fit to a single binding isotherm, e.g. fraction bound=KD/(1+KD) using Kaleidagraph (Synergy Software), or a similar program.
Because of the nature of the sulfonamide binding as a fourth ligand to the active site, DPSA binds as a 1:1 complex at realistic aliquot concentrations. If the fractional saturation is not near 1.0 at higher DPSA concentration because the DPSA binds more weakly to the variant, the curvature of the isotherm will not reach the peak intensity.

Series [2] deals with CA-Zn (holoCA) (Homo sapiens, UniProt P00918). Nature of the series: Screening of fluorescent reporters with CA and zinc (fluorescence intensity). As for the experimental part: (§1) Stock solutions of the fluorescent reporter were prepared in alcohol and diluted 1000-fold in the final measuring cuvette. Carbonic anhydrase protein (CA) was “apo-ized” as per a standard procedure (50). Zinc was added to a solution of the CA in the presence of the reporter and the change in fluorescence intensity and wavelength of the reporter were measured on a Spex DM-1B fluorescence spectrophotometer using He—Cd laser excitation.

A short description of series [3]: Leakage of reporter through microdialysis membrane. Format: physicochemical. The conditions noted are these: microdialysis chamber (sock), HEPES external medium. As for the experimental part: A solution of DPSA was placed in the “sock” and the fluorescence of DPSA inside the dialysis chamber and in the external HEPES buffer solution was measured (FIG. 4A). The chamber was then filled with 10 μM apoCA and the external solution with […] HEPES buffer and 10 μM free zinc (FIG. 4B). Since the microdialysis membrane is impermeable to apoCA, any zinc that passes through the membrane is then trapped inside upon binding to apoCA. […] For example, if free zinc in the biological medium is 2 nM, then 0.90 nM zinc will be trapped within the “sock.”
However, DNSA “leaks out” of the membrane. DNSA reporter was covalently bound to amino-CPG beads using a 12 C or a 14 C tether and placed into the microdialysis membrane or “sock”. […] The DNSA-CPG bead system comprises a “molecular tether” means of entrapment (FIG. 7).

Series [4] is described as follows: Spectral characteristics of reporters for CA-based zinc biosensor. It is filed as physicochemical. How it is done: as §1
Series [5] can be described thus: Fluorescence response to zinc of dye in micropolymer spots on glass slides. The conditions noted are these: dye in polymer on glass slide, HEPES pH ˜7.4, 500 μM Zn^2+. As for the experimental part:
A proprietary micropolymer was obtained from Gary Kiefer of DOW. Two fluorescence sensors were mixed individually with the micropolymer. One was TFLZN which has a Kd of 10 μM for binding zinc and which is strongly hydrophilic. The other was ZP1, which is more lipophilic, binds zinc with a Kd of 0.5 nM, and is very bright with a quantum yield of 0.9. After mixing, the two solutions were spotted onto acid-cleaned glass slides in spots of 2.5 and 10.0 μL and allowed to cure overnight.
To evaluate the coatings, one microliter of HEPES (50 mM, pH ˜7.4) was put onto one spot on the polymer/probe coatings and a second spot with one microliter of the same HEPES plus 1 microliter of ZnSO4 (final [Zn^2+], 500 μM) was put next to the first spot. Images of the both spots were captured using the exact same camera settings for both spots. […] When the actual fluorescent intensity of the spots was measured using Photoshop, it was observed that the zinc-added spot was from 4-5-fold brighter that the HEPES spot. […] The change in fluorescence was not timed, but in this microscope-measuring system, the change appeared essentially instantaneously, i.e., within the few seconds it took to put the slide back in place, re-focus the microscope, and capture the second image. […] Furthermore, washing the spots with pure HEPES again lowered the fluorescence back to essentially the pre-zinc levels. […]

For series [6] the following is noted: read-out: Kd for binding zinc; cited from earlier work.
Series [7] is described as follows: pZn meter calibration with metal buffer (ZP1). It is filed as binding. The conditions noted are these: 50 μM bicine metal buffer, [ZP1]=100 nM; read-out: KD, fluorescence intensity midpoint. As for the experimental part:
In calibrating the pZn meter using a metal buffer to control free zinc (FIG. 16A), the [ZP1] is <<than the effective [Zn2+ free] because the metal buffer, 50 μM bicine, can supply a large total number of Zn ions, while keeping the concentration of zinc ions fixed. Thus, in this calibration, the fluorescence intensity midpoint is approximately equal to the KD, 0.5 nM where [ZP1]=100 nM. In a second calibration, a ZP1 concentration of 20 nM of zinc, as ZnSO4, is used (FIG. 16B). Because no metal buffer is used and because the ZP1 concentration is much higher than the zinc concentration, this is a stoichiometric or “percent occupancy” titiration in which the fluorescence intensity is simply proportional to the molar ratio, [Zn]:[ZP1}.

The conditions of series [8]: cited from earlier work.
The subject of series [9] is rabbit brain. The conditions noted are these: 1 mM in dialysis fluid, 10 minutes infusion, anesthetized rabbits, dorsal hippocampus.
Description: The microdialysis probes were aimed at the dorsal hippocampus in two acutely prepared rabbits, as described above, and the rabbits were anesthetized with isofluorane.
This caused spermine NONOate to release NO*, some of which presumably passed through the dialysis membrane and into the brain as a reverse dialysis procedure. The infusion lasted 10 minutes.

Molecules are shown by their SMILES. Entries after “also recorded” stand apart in the source; their conditions may differ. Like-named read-outs stand apart in the source and are kept apart here.

In general, Kd refers to the constant that tells how readily two partners part at equilibrium.

Consider `CN(C)c1cccc2c(S(N)(=O)=O)cccc12` [DNSA, dansylamide], for which the “binding to holoCA” value in [1] is “low micromole”. Moreover, in series [2], the “increase of fluorescent yield upon binding to holo-CA” value was 6 fold. In series [3], the “leakage out of microdialysis membrane” value was “leaks out”. For the same compound, in series [4], the Abs max is 332 nm, the Emm max is recorded as 560 nm and the “Molar ε” value is on record as 4.7 × 10^3 cm^−1M^−1.

As to `CN(C)c1ccc(-c2cnc(-c3ccc(S(N)(=O)=O)cc3)o2)cc1` [DPSA, dapoxylsulfonamide], the “binding to holoCA” value in series [1] is reported as “low picomole”. For the same compound, in series [2], the “increase of fluorescent yield upon binding to holo-CA” value is listed as 20 fold. This compound registered a fluorescence intensity in series [2] (1 μM DPSA, alone or with the named CA) of 70 units. For the same compound, the “leakage out of microdialysis membrane” value in series [3] was “membrane impermeable; also recorded: does not leak out”. Moreover, in series [4], the Abs max is 355 nm, the Emm max came out at 605 nm, the “Molar ε” value is reported as 2.2 × 10^4 cm^−1M^−1 and the “absorption λmax” value is 340 nm.

Consider `COc1cc(NS(=O)(=O)c2ccc(C(=O)O)cc2)c2nc(C)ccc2c1` [TFLZN], for which the “fluorescence of zinc-added spot versus HEPES spot” value in series [5] is listed as approximately 15 fold. Also, the equilibrium dissociation constant (Kd) in series [6] is 10000 nM.

For `O=C(O)c1ccccc1-c1c2cc(Cl)c(=O)c(CN(Cc3ccccn3)Cc3ccccn3)c-2oc2c(CN(Cc3ccccn3)Cc3ccccn3)c(O)c(Cl)cc12` [ZP1, 9-(o-carboxyphenyl)-2,7-dichloro-4,5-bis[bis(2-pyridylmethyl)-aminomethyl]-6-hydroxy-3-xanthanone], the results for the Kd in series [7] and in [6] were approximately 0.5 nM and 0.5 nM, respectively. In addition, the values for the quantum yield result in series [8] (after zinc binding), in [8] (before zinc binding) and in [8] (condition not stated) were “about 0.87”, “about 0.39” and 0.9, respectively. In addition, the excitation wavelength maximum is 515 nm in series [8] (without zinc) and 507 nm in series [8] (zinc bound). Further, in [5], the “fluorescence of zinc-added spot versus HEPES spot” value is recorded as 4-5 fold.

Take `O=C(O)c1ccccc1-c1c2cc(Cl)c(=O)cc-2oc2c(CNc3ccccc3CN(Cc3ccccn3)Cc3ccccn3)c(O)ccc12` [ZP4, 9-(o-carboxyphenyl)-2-chloro-5-[2-{bis(2-pyridylmethyl)aminomethyl}-N-methylaniline]-6-hydroxy-3-xanthanone]: the quantum yield entry in series [8] (after zinc binding) is reported as “about 0.34”; in series [8] (before zinc binding), “about 0.06”. Further, the pKa value entry in series [8] (relative to Zinpyr 1 and Zinpyr 2) is on record as “lower”.

As to `NCCCNCCCCN(CCCN)/[N+]([O-])=N/O` [spermine NONOate], the “release of free zinc into dialysate” value in series [9] is “vigorous release of free zinc”.

The record behind these values is US20050142067A1, “Zintrodes, multitrodes and uses thereof” (priority 2003, published 2005).
